Data on nine compounds can be found in patent US20240425523A1, “Compounds for the Degradation of EGFR Kinase” (Beigene Switzerland GMBH, priority 2023, published 2024).

Assay type in all cases: cell-based
The target of assay [1] is T1, EGFR-L858R/C797S (H1975-clone #8 cells) (Homo sapiens, UniProt P00533, C797S/L858R).
T1 construct: expressed in transfected cells; host or cells: H1975 (endogenous EGFR knocked out, clone #8)
The assay is described as follows: Cell degradation of EGFR, HTRF assay, H1975-clone#8 (L858R/C797S) cells. The settings on record: 16 h treatment; for DC50: EGFR degradation; for Dmax: maximum percentage of degradation.

In assay [2] the target is T2, p-EGFR L858R (BaF3-L858R cells) (Homo sapiens, UniProt P00533, L858R).
T2 construct: host or cells: BaF3
The experiment in a line: Cell p-EGFR inhibition assay, HTRF, BaF3-L858R cells. To be noted: 16 h treatment; for Imax (%): maximum percentage of pEGFR inhibition; for IC50: pEGFR inhibition. In outline: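 BaF3-L858R cells treated 16 h at 37 °C, 5% CO2 with compound from 10 uM top, 5-fold dilutions, 8 doses, in 0.1% DMSO medium. Lysates read overnight by HTRF p-EGFR antibodies; IC50 fitted to four-parameter curve against DMSO high control.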
Background: In TR-FRET formats the signal depends on donor and acceptor labels being close together.

In assay [3] the target is p-EGFR Del19/C797S (H1975-clone #23 cells) (Homo sapiens, UniProt P00533). The assay is described as follows: Cell p-EGFR inhibition assay, HTRF, H1975-clone#23 (DEL19/C797S) cells. To be noted: 16 h treatment; for Imax (%): maximum percentage of pEGFR inhibition; for IC50: pEGFR inhibition. The method, boiled down:
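Phospho-EGFR read by overnight HTRF on lysates, normalized to DMSO-treated high control; IC50, Hill slope and Imax fitted. Compounds were applied for 16 h (10 uM top, 5-fold steps, 8 doses) to an H1975 single clone carrying only exogenous Del19/C797S EGFR after sgRNA knockout of endogenous copies.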

In assay [4] the target is T3, EGFR L858R (BaF3-L858R cells) (Homo sapiens, UniProt P00533, L858R).
T3 construct: host or cells: BaF3
The experiment in a line: Cell degradation of EGFR, HTRF assay, BaF3-L858R cells. To be noted: 16 h treatment; for DC50: EGFR degradation; for Dmax: maximum percentage of degradation. The method, boiled down: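 EGFR L858R levels measured by HTRF antibody pair in lysed BaF3-L858R cells after 16 h compound exposure (8-point 5-fold series from 10 uM final, 37° C). Degradation is relative to DMSO-only cells; DC50 fitted with Hill equation, Dmax taken as the largest percent loss.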

Molecules are shown by their SMILES.

A word on the DC50: it is the concentration giving 50% degradation. One may read the Dmax as the greatest extent of degradation seen. As usually defined, the IC50 is the concentration that gives 50% inhibition. A low value points to higher potency. With `Cc1cc2cc(n1)-c1cnn(C)c1OC[C@H]1CCC(C1)CN1/C(=N/C2=O)Nc2ccc(N3CCN(C4CCN(c5c(F)cc(OC6CCC(=O)NC6=O)cc5F)CC4)CC3)cc21` (stereo partly drawn) [Example 111, 3-(4-(4-(4-((7^1R,7^3S,E)-1^1,2^6-dimethyl-3-oxo-5^2,5^3-dihydro-1^1H,5^1H-9-oxa-4-aza-5(2,1)-benzo[d]imidazola-2(2,4)-pyridina-1(4,5)-pyrazola-7(1,3)-cyclopentanacyclononaphane-5^6-1)piperazin-1-yl)piperidin-1-yl)-3,5-difluorophenoxy)piperidine-2,6-dione], the results for the half-maximal degradation concentration (DC50) in assay [1] and in assay [4] were 1.92 nM and 3.18 nM, respectively. The Dmax in assay [1] came to 85.7%; in assay [4] it was 80.7%. Also, the “Imax (%)” value in assay [2] is given as 97.6%; in assay [3], 100.1%. The IC50 in assay [2] is 16.1 nM; in assay [3], 1 nM.
Turning to `COC[C@@H]1CN(c2ccc3c(c2)N2CC4CC[C@H](COc5c(cnn5C)-c5cc(cc(C)n5)C(=O)/N=C/2N3)C4)CCN1CC1CN(c2cc(F)c([C@H]3CCC(=O)NC3=O)c(F)c2)C1` [Example 86, (R)-3-(4-(3-(((S)-4-((7^1R,7^3S,E)-1^1,2^6-dimethyl-3-oxo-5^2,5^3-dihydro-1^1H,5^1H-9-oxa-4-aza-5(2,1)-benzo[d]imidazola-2(2,4)-pyridina-1(4,5)-pyrazola-7(1,3)-cyclopentanacyclononaphane-5^6-yl)-2-(methoxymethyl)piperazin-1-yl)methyl)azetidin-1-yl)-2,6-difluorophenyl)piperidine-2,6-dione], the DC50 in assay [1] stood at 3.22 nM; in assay [4], 2.74 nM. The Dmax in assay [1] stood at 66%; in assay [4], 70.3%. Besides, the “Imax (%)” value is recorded as 97.1% in assay [2] and 100.2% in assay [3]. For the same compound, the IC50 in assay [2] was 17.2 nM; in assay [3], 3 nM.
In the case of `Cc1cc2cc(n1)-c1c(C)nn(C)c1OC[C@H]1CC[C@H](C1)CN1/C(=N/C2=O)Nc2ccc(N3CCN(CCC4CCN(c5cc(F)c([C@H]6CCC(=O)NC6=O)c(F)c5)CC4)CC3)cc21` [Example 183, (R)-3-(2,6-difluoro-4-(4-(2-(4-((7^1R,7^3S,E)-1^1,1^3,2^6-trimethyl-3-oxo-5^2,5^3-dihydro-1^1H,5^1H-9-oxa-4-aza-5(2,1)-benzo[d]imidazola-2(2,4)-pyridina-1(4,5)-pyrazola-7(1,3)-cyclopentanacyclononaphane-5^6-yl)piperazin-1-yl)ethyl)piperidin-1-yl)phenyl)piperidine-2,6-dione], the DC50 in assay [1] was 5.83 nM; in assay [4], 5.3 nM. In addition, the results for the Dmax in assay [1] and in assay [4] were 91.2% and 91.6%, respectively. Besides, the results for the “Imax (%)” value in assay [2] and in assay [3] were 98.21% and 99.41%, respectively. Also, the IC50 in assay [2] turned out to be 5.32 nM; in assay [3], 7.32 nM.
With `Cc1cc2cc(n1)-c1c(C)nn(C)c1OC[C@H]1CC[C@H](C1)CN1/C(=N/C2=O)Nc2ccc(N3CCC(N(C)C4CN(c5cc(F)c([C@H]6CCC(=O)NC6=O)c(F)c5)C4)CC3)cc21` [Example 142, (R)-3-(2,6-difluoro-4-(3-(methyl(1-((7^1R,7^3S,E)-1^1,1^3,2^6-trimethyl-3-oxo-5^2,5^3-dihydro-1^1H,5^1H-9-oxa-4-aza-5(2,1)-benzo[d]imidazola-2(2,4)-pyridina-1(4,5)-pyrazola-7(1,3)-cyclopentanacyclononaphane-5^6-yl)piperidin-4-yl)amino)azetidin-1-yl)phenyl)piperidine-2,6-dione], the DC50 in assay [1] was found to be 0.748 nM; in assay [4], 7.26 nM. Further, the Dmax in assay [1] came out at 87.3%; in assay [4], 80.3%. Besides, the figures for the “Imax (%)” value in assay [2] and in assay [3] were 97.8% and 102.03%, respectively. The IC50 in assay [2] is 4.77 nM; in assay [3] it was 1.42 nM.
Take `COC[C@@H]1CN(c2cc3c(cc2F)N/C2=N\C(=O)c4cc(C)nc(c4)-c4cnn(C)c4OC[C@H]4CCC(C4)CN23)CCN1C1CCN(c2cc(F)c([C@H]3CCC(=O)NC3=O)c(F)c2)CC1` [Example 87, (R)-3-(2,6-difluoro-4-(4-((S)-4-((7^1R,7^3S,E)-5^5-fluoro-1^1,2^6-dimethyl-3-oxo-5^2,5^3-dihydro-1^1H,5^1H-9-oxa-4-aza-5(2,1)-benzo[d]imidazola-2(2,4)-pyridina-1(4,5)-pyrazola-7(1,3)-cyclopentanacyclononaphane-5^6-yl)-2-(methoxymethyl)piperazin-1-yl)piperidin-1-yl)phenyl)piperidine-2,6-dione]: the figures for the DC50 in assay [1] and in assay [4] were 8.71 nM and 2.86 nM, respectively. The values for the Dmax in assay [1] and in assay [4] were 70.8% and 64.1%, respectively. Further, the “Imax (%)” value in assay [2] was determined as 96.2%; in assay [3] it was 100.3%. Besides, the IC50 in assay [2] is 13.8 nM; in assay [3], 1.5 nM.
Consider `Cc1cc2cc(n1)-c1cnn(C)c1OC[C@H]1CCC(C1)CN1/C(=N/C2=O)Nc2ccc(N3CCN(CCc4cc(F)c(C5CCC(=O)NC5=O)nc4C)CC3)cc21` (stereo partly drawn) [Example 78, 3-(5-(2-(4-((7^1R,7^3S,E)-1^1,2^6-dimethyl-3-oxo-5^2,5^3-dihydro-1^1H,5^1H-9-oxa-4-aza-5(2,1)-benzo[d]imidazola-2(2,4)-pyridina-1(4,5)-pyrazola-7(1,3)-cyclopentanacyclononaphane-5^6-yl)piperazin-1-yl)ethyl)-3-fluoro-6-methylpyridin-2-yl)piperidine-2,6-dione], for which, in assay [1], the DC50 is 4.18 nM and the Dmax is 65.5%. Also, in assay [2], the “Imax (%)” value was determined as 92.5% and half-maximal inhibition (IC50) required 16.9 nM. In assay [3], the “Imax (%)” value amounted to 100.6% and the midpoint of inhibition, the IC50, lay at 1.2 nM. In assay [4], this compound registered a DC50 of 3.68 nM and a Dmax of 87.8%.
For the compound `COC[C@H]1CN(c2ccc3c(c2)N2C[C@@H]4CC[C@H](COc5c(c(C)nn5C)-c5cc(cc(C)n5)C(=O)/N=C/2N3)C4)CCN1C1CCN(c2ccc(NC3CCC(=O)NC3=O)cc2C)CC1` (stereo partly drawn) [Example 207, 3-((4-(4-((R)-2-(methoxymethyl)-4-((7R,7^3S,E)-1^1,1^3,2^6-trimethyl-3-oxo-5^2,5^3-dihydro-1^1H,5^1H-9-oxa-4-aza-5(2,1)-benzo[d]imidazola-2(2,4)-pyridina-1(4,5)-pyrazola-7(1,3)-cyclopentanacyclononaphane-5^6-yl)piperazin-1-yl)piperidin-1-yl)-3-methylphenyl)amino)piperidine-2,6-dione], in assay [1], the DC50 came out at 1.7 nM and the greatest degradation seen (Dmax) was found to be 87.5%. In addition, in assay [2], the “Imax (%)” value is on record as 88.5% and the IC50 came to 1.5 nM. In addition, in assay [3], the “Imax (%)” value came to 100.67% and it took 1.4 nM to reach half-maximal inhibition (IC50). For the same compound, in assay [4], the 50% degradation concentration (DC50) turned out to be 1.04 nM and the Dmax was 91.9%.
In assay [1], `COC[C@H]1CN(c2ccc3c(c2)N2C[C@@H]4CC[C@H](COc5c(c(C)nn5CCO)-c5cc(cc(C)n5)C(=O)/N=C/2N3)C4)CCN1C1CCN(c2cc(F)c([C@H]3CCC(=O)NC3=O)c(F)c2)CC1` [Example 156, (R)-3-(2,6-difluoro-4-(4-((R)-4-((7^1R,7^3S,E)-1^1-(2-hydroxyethyl)-1^3,2^6-dimethyl-3-oxo-5^2,5^3-dihydro-1^1H,5^1H-9-oxa-4-aza-5(2,1)-benzo[d]imidazola-2(2,4)-pyridina-1(4,5)-pyrazola-7(1,3)-cyclopentanacyclononaphane-5^6-yl)-2-(methoxymethyl)piperazin-1-yl)piperidin-1-yl)phenyl)piperidine-2,6-dione] registered a DC50 of 2.73 nM and a Dmax of 88%. Also, in assay [2], the “Imax (%)” value was 95.16% and half-maximal inhibition (IC50) was put at 4.81 nM. For the same compound, in assay [3], the “Imax (%)” value worked out at 100.92% and 0.789 nM corresponded to half-maximal inhibition (IC50). In assay [4], this compound showed a DC50 of 2.11 nM and a Dmax of 87.4%.
On to `COC[C@H]1CN(c2ccc3c(c2)N2C[C@H]4CC[C@@H](COc5c(c(C)nn5C)-c5cc(cc(C)n5)C(=O)/N=C/2N3)C4)CCN1C1CCN(c2cc(F)c([C@H]3CCC(=O)NC3=O)c(F)c2)CC1` [Example 150, (R)-3-(2,6-difluoro-4-(4-((R)-2-(methoxymethyl)-4-((7S,7^3R,E)-1^1,1^3,2^6-trimethyl-3-oxo-5^2,5^3-dihydro-1^1H,5^1H-9-oxa-4-aza-5(2,1)-benzo[d]imidazola-2(2,4)-pyridina-1(4,5)-pyrazola-7(1,3)-cyclopentanacyclononaphane-5^6-yl)piperazin-1-yl)piperidin-1-yl)phenyl)piperidine-2,6-dione], for which, in assay [1], the DC50 came to 7.29 nM and the Dmax amounted to 85%. In addition, in assay [2], the “Imax (%)” value was determined as 91.27% and the IC50 came to 72.1 nM. In assay [3], the “Imax (%)” value is recorded as 100.12% and 2.16 nM corresponded to half-maximal inhibition (IC50). In assay [4], this compound registered a DC50 of 8.77 nM and a Dmax of 90.5%.
